According to patent publication US8399459B2, “1,4 oxazines as BACE1 and/or BACE2 inhibitors” (Hoffmann-La Roche Inc., priority 2011, dated 2013):

Molecular target: T1, BACE2 (Rattus norvegicus, UniProt Q6IE75)
T1 construct: endogenous cellular BACE2 in the Ins1e rat cell line; endogenous in cells; host or cells: INS-TMEM27 (INS1e-derived rat cell line with doxycycline-inducible full-length human TMEM27)
T1 sequence (Q6IE75 63-514): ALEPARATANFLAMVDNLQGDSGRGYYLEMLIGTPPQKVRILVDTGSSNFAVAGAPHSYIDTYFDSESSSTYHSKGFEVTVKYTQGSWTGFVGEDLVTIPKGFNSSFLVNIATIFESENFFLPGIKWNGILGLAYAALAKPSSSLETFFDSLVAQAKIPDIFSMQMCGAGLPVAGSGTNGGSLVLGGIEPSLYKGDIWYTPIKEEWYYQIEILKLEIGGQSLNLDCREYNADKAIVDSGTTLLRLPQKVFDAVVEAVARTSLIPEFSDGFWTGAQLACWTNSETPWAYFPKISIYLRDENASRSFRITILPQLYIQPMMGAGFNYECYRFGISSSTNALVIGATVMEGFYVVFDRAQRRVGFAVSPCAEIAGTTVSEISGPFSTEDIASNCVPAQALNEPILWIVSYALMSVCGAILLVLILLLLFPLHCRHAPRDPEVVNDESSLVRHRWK
Test: Assay for BACE inhibition by measuring cellular TMEM27 cleavage (INS-TMEM27 cells, ELISA)
Type: cell-based
Conditions: INS-TMEM27 (INS1e-derived) cells; shed TMEM27 by ELISA
Source text: Assay for BACE Inhibition by Measuring Cellular TMEM27 Cleavage:
The assay uses the principle of inhibition of human TMEM27 cleavage by endogenous cellular BACE2 in the Ins1e rat cell line and shedding from the cell surface into the culture medium, followed by detection in an ELISA assay. Inhibition of BACE2 prevents the cleavage and shedding in a dose-dependent manner.
The stable cell line “INS-TMEM27” represents an INS1e-derived cell line with inducible expression (using the TetOn system) of full-length hTMEM27 in a doxycycline-dependent manner. The cells are cultured throughout the experiment in RPMI1640+Glutamax (Invitrogen) Penicillin/Streptomycin, 10% Fetal bovine serum, […], […], 100 micrograms/ml G418 and 100 microgram/ml hygromycin and are grown inadherent culture at 37° C. in a standard CO2 cell culture incubator.
INS-TMEM27 cells are seeded in 96-well plates. After 2 days in culture, BACE2 inhibitor is added in a range of concentrations as required by the assay and after a further two hours, doxycycline is added to a final concentration of 500 ng/ml. The cells are incubated for a further 46 hours and the supernatant harvested for detection of shed TMEM27.
An ELISA assay (using a pair of mouse anti-human-TMEM27 antibodies, raised against the extracellular domain of TMEM27) is used for detection of TMEM27 in the culture medium. An EC50 for BACE2 inhibition is calculated using the ELISA readout for each inhibitor concentration with standard curve-fitting software such as XLFit for the Excel spreadsheet program.

IC50: 470 nM
SMILES: CC1(c2cccc(-c3cc(Cl)cc(Cl)c3)c2)COCC(N)=N1 (stereo not shown) [Example 32, 5-(3′,5′-Dichloro-biphenyl-3-yl)-5-methyl-5,6-dihydro-2H-[1,4]oxazin-3-ylamine]
